{
  "source": "patent US8961958B2",
  "about": "“High concentration self-microemulsifying coenzyme Q10 preparations for nutritional use” (Bioavailability, Inc, priority 2004, dated 2015)",
  "key": {"[1]": {"assay": "Solubility of CoQ10 in solvents", "type": "physicochemical", "procedure": "The speed at which the CoQ10 dissolves into the solvent is primarily a function of the temperature of the solvent and its viscosity, but the base composition that is prepared at a temperature above […] will have the same properties as a base prepared at a temperature of 37° C. If CoQ10 crystals are added to solvents hot enough to melt CoQ10 (48° C. to about 52° C.) the molten CoQ10 mixes and dissolves almost immediately. On the other hand, under room temperature conditions, several hours of stirring may be required to obtain even a 5% CoQ10 concentration in a highly viscous solvent such as a triglyceride oil. By contrast, a low viscosity solvent, such as sweet orange oil can dissolve a 30% CoQ10 concentration under room temperature almost immediately. The fact that CoQ10 melts at about 48° C. to about 52° C. and then is soluble at high concentrations in a wide range of only modestly hydrophobic media, such as ethanol, is distracting to the design of high concentration CoQ10 solutions at room temperature or body temperature. Many different high concentration solutions of CoQ10 which form readily at the high temperatures of molten CoQ10 are not stable, or are meta-stable, at body temperature.\nPrimary considerations in the choice of an acceptable water-immiscible solvent are somewhat similar to those in choosing an acceptable surfactant. In addition to the basic requirements of bio-compatibility, low toxicity and good taste and odor, the solvent must have a melting point at or about the temperature of a human and most other mammals (about 37° C.), and be able to dissolve a substantial amount of CoQ10 below body temperature. […] Once such a solvent is identified, the saturation capacity of the solvent with CoQ10 at body temperature is then determined, and a reduction in the concentration of CoQ10 is made to ensure that mixture of the CoQ10 and solvent, along with the more hydrophilic surfactant, will not cause CoQ10 precipitation. […]"}, "[2]": {"conditions": "cited from earlier work"}},
  "data": [
    {"smiles": "COC1=C(OC)C(=O)C(C/C=C(\\C)CC/C=C(\\C)CC/C=C(\\C)CC/C=C(\\C)CC/C=C(\\C)CC/C=C(\\C)CC/C=C(\\C)CC/C=C(\\C)CC/C=C(\\C)CCC=C(C)C)=C(C)C1=O", "note": "[CoQ10, coenzyme Q10]", "values": [
      {"measurement": "thermodynamically stable concentration of CoQ10 in sweet orange oil", "setting": "[1]; sweet orange oil, body temperature", "result": "up to 55%"},
      {"measurement": "CoQ10 concentration dissolved in sweet orange oil", "setting": "[1]; sweet orange oil, room temperature, almost immediately", "result": 30, "unit": "%"},
      {"measurement": "CoQ10 dissolvable in triglyceride oils", "setting": "[1]; triglyceride oils, body temperature", "result": "≤ 5", "unit": "% by weight"},
      {"measurement": "solubility of CoQ10 in water", "setting": "[2]", "result": "nearly insoluble in water"}
    ]}
  ]
}
